Laboratory results taken from patent US20260151384A1, “ISOQUINOLINE DERIVATIVES AS PROTEIN DEGRADERS, E7 DEGRADERS, ANTIVIRALS, TUMOR THERAPEUTICS AND IMMUNE SUPPRESSIVES” (priority 2022, published 2026).

How the values were obtained:
[1] = system: SARS-CoV-2; assay type: cell-based
[2] = target: HPV16 E7 protein (Human papillomavirus type 16, UniProt P03129); test: Western blot of E7 steady state level in CaSki cells; assay type: cell-based; conditions: 10 μM, up to 24 hours
Experimental: Reagents for Extract preparation and Western Blotting: Extraction Buffer: 2.5× (Tris 0.25M pH6.8, Glycerol 50%, SDS 10%), Gels: 4-12% gradient gels (Bolt® 4-12% Bis-Tris Plus Gel). MES Buffer: 50 mM MES, 50 mM Tris Base, 0.1% SDS, 1 mM EDTA, pH 7.3, Blotting membrane: Nitrocelulose 0.2 μm (Whatman Protran #10401394), 3MM filter paper (e.g. Whatman 3MM Chr, #3030917). Western Detection Reagents: WB Wash Buffer 1× (TBET): 20 mM Tris, 150 mM NaCl, 0.125% Tween20, pH 7.8; skim-milk powder (less than 0.15% fat content). Phosphate buffered saline (PBS) 1×: prepared as 1 L add 8 g sodium chloride (NaCl), 0.2 g potassium chloride (KCl), 1.44 g sodium phosphate, dibasic (Na2HPO4) and 0.24 g potassium phosphate, monobasic (KH2PO4) to 1 L dH2O, pH adjusted to 7.2.
B) For cells in cell culture the following procedure for the preparation of a total cell extract is used. Freshly seeded cells are grown for 24 hours to obtain 65-75% confluency (corresponds for CaSki cells to a plating of approx. 2×10^6 cells/10 cm Ø cell culture dish). Cell culture dishes with medium are out on ice for 5 minutes. […]
Dilute secondary anti-mouse HRP antibody in WB Blocking Buffer according to manufacturer instruction (e.g. CST Anti mouse IgG HRP-linked Ab, #7076, 1:3000). […] The membranes are developed using standard chemo luminescence (ECL) detection systems following imaging with Licor or Viber devices. […]

[3] = system: SARS-CoV-2; test: SARS-CoV-2 antiviral activity, mono treatment or combinations, Vero E6 cells (Test 18); assay type: cell-based; conditions: 10, 5, 2.5, 1.25, 0.625 μM; FIG. 10
Description: SARV-CoV-2 antiviral activity of VSP035 from mono treatment, or in combination with various pharmacological drug substances at various concentrations shown by the bars from left to the right. Y axis % Inhibition. Due to lethal concentrations for Vero E6 cells, dose dependency is visible at non-lethal doses only (median of multiple experiments n4 is shown); Concentrations (left to right) Compounds and respective assay concentrations in μM are, “constant” means same concentration for the series (X axis, numbers for series): (FIG. 10).

[4] = system: PDL-1; test: Western blot of PDL-1 in CaSki cells; assay type: cell-based, human; conditions: 4 and 8 hours, dose dependent
Experimental: 24 h after seeding, cells were treated with VSP035, cycloheximide (CHX) and/or MG132 protasome inhibitor as indicated. Cells were harvested for analysis for BY WB. […] In particular, faster migrating band abundancy was regulated by proteasome inhibitor MG132 and the protein was destabilized in the presence of CHX.

[5] = Pharmacokinetics of VSP034 and VSP035, oral liposomal formulation; assay type: in vivo, female Sprague-Dawley rats; conditions: 100 mg/kg oral gavage; Student's t test, significant
Experimental: The pharmacokinetic parameters of VSP034 and VSP035 encapsulated as liposomal formulation were assessed after the administration of a single 100 mg/kg dose by oral gavage to 6 female Sprague-Dawley rats weighting 250 grams (±25g). The animals were randomized into two experimental groups (Groups 1 and 2), each composed of 3 rats. Rats belonging to group 1 were administered with VSP034 and rats belonging to group 2 were administered with VSP035. Blood was collected at baseline and 15 min, 30 min, 1, 2, 4, 6, 8, and 24 hours after the oral gavage. The rats were sacrificed 24 hours after the dosing. Blood was collected at each timepoint from the caudal vein, with the exception of the last collection (24 hours), which was performed by intracardiac puncture at the moment of sacrifice under isoflurane anesthesia. The animals were weighted immediately before the dosing to assess the proper dose and carefully monitored during the experiment. […] The main pharmacokinetic parameters (half-life, t1/2; time to maximum plasma concentration, Tmax; maximum plasma concentration, Cmax, AUC Extrapolated to Infinity, AUC0-inf; mean residence time, MRT; Apparent Volume of Distribution During Terminal Phase, VZ/F; and apparent oral clearance, CL/F) were calculated from the coefficients and exponents of the best-fits by using standard formulae.

[6] = system: 4E-BP1; test: Western blot of 4E-BP1 phosphorylation in CaSki cells; assay type: cell-based, human; conditions: 6 h, 10 μM & 5 μM
Description: Thus, clearly distinguishing downstream-effects in comparison to a general TOR Kinase inhibition.

[7] = system: SARS-CoV-2; test: microbe, parasite or virus in culture; assay type: cell-based; conditions: 1.25 μM, n4
[8] = system: p38, JNK1, ERK1/2, PKC, or Src-like kinases; conditions: cited from earlier work

HPV16 E7 protein, sequence (P03129 whole entry): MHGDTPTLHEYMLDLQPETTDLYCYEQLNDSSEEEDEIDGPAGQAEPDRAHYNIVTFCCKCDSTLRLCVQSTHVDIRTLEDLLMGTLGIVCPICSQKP

Q: With `CN1CCC(CN2C(=O)c3ccccc3[C@H](C(=O)Nc3cccc(N4CCN(C)CC4)c3)[C@H]2c2ccc(C(F)(F)F)cc2)CC1` [VSP035, (3S,4S)—N-[3-(4-methylpiperazin-1-yl)phenyl]-2-[(1-methylpiperidin-4-yl)methyl]-1-oxo-3-[4-(trifluoromethyl)phenyl]-1,2,3,4-tetrahydroisoquinoline-4-carboxamide] as the compound, how does the inhibition [1] read?
A: 72±7.7%

Q: What about the “HPV 16 E7 protein degradation time course (western blot)” value [2] of the same compound?
A: stable e7 reduction

Q: What about the “antiviral activity as single agent” value [3] of the same compound?
A: Robust antiviral activities

Q: And the “regulation of PDL-1 (western blot)” value [4]?
A: valid pdl-1 destabilizer

Q: And the “AUC higher than that of VSP034” value [5]?
A: 4 fold

Q: And the “phosphorylation state of 4E-BP1” value [6]?
A: dose dependent hypophosphorylation

Q: With `Nc1ncnc2n[nH]c(Nc3ccc(F)cc3)c12` [CGP57380] as the compound, how does the “% Inhibition of SARV-CoV-2 virus activity” value [7] read?
A: 17.71%

Q: What about the “inhibitory activity against p38, JNK1, ERK1/2, PKC, or Src-like kinases” value [8] of the same compound?
A: no inhibitory activity
